According to patent publication US8633197B2, “Piperidine/piperazine derivatives” (Janssen Pharmaceutica N.V., priority 2007, dated 2014):

What was measured:
human DGAT1 = biological target: T1, human DGAT1 (Homo sapiens, UniProt O75907); assay: DGAT1 FlashPlate assay: inhibition of DGAT1 activity in membrane preparations; format: biochemical; conditions: IC50 values expressed in M
T1 construct: FLAG (N); made in house; host or cells: SF9 insect cells (pFastBac baculovirus); total cell membranes used
T1 sequence (O75907 1-488): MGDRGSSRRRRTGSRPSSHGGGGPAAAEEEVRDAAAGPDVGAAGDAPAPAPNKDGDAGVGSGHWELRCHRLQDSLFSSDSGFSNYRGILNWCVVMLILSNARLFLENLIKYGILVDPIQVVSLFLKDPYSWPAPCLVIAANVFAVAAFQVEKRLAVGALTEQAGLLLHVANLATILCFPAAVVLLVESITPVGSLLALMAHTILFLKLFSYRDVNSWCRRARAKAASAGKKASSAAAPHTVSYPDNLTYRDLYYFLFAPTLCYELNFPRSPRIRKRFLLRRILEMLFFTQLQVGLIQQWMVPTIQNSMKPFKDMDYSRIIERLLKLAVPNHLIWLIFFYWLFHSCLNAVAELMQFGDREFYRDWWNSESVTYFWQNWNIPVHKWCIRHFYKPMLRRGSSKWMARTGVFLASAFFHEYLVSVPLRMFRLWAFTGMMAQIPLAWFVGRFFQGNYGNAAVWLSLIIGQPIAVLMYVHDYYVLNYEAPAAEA
Description: The inhibiting activity of the present compounds on DGAT1 activity was screened in a single well procedure assay using DGAT1 comprising membrane preparations and DGAT1 substrate comprising micelles and determining formed radio-active triacylglycerol coming in close proximity of a flashplate surface by radio luminescence.
Said assay is described in full detail in WO2006/067071, the content of which is incorporated herein by reference.
By DGAT1 activity is meant the transfer of coenzyme A activated fatty acids to the 3-position of 1,2-diacylglycerols, thus forming a triglyceride molecule, by enzyme DGAT1.
human DGAT1 (NM012079.2) was cloned into the pFastBac vector, containing translation start, a FLAG-tag at the N-terminus as described in literature and a viral Kozak sequence (AAX) preceding the ATG to improve expression in insect cells. Expression was done as described in literature (Cases, S., Smith, S. J., Zheng, Y., Myers H. M., Lear, S. R., Sande, E., Novak, S., Collins, C., Welch, C. B., Lusis, A. J., Erickson, S. K. and Farese, R. V. (1998) Proc. Natl. Acad. Sci. USA 95, 13018-13023.) using SF9 cells.
72 h transfected SF9 cells were collected by centrifugation (13000 rpm-15 min-4° C.) and lysed in 2×500 ml lysisbuffer (0.1M Sucrose, 50 mM KCl, 40 mM KH2PO4, 30 mM EDTA pH 7.2. Cells were homogenized by cell disruptor. After centrifugation 1380 rpm-15 min-4° C. (SN discarded), pellet was resuspended in 500 ml lysisbuffer and total cell membranes collected by ultracentrifugation at 34000 rpm (100 000 g) for 60 min (4° C.). The collected membranes were resuspended in lysis buffer, divided in aliquots and stored with 10% glycerol at −80° C. until use.
Add 1 ml dioleoyl-sn-glycerol (10 mg/ml) to 10 ml of L-α-phosphatidylcholine (1 mg/ml) and 10 ml of L-α-phosphatidyl-L-serine (1 mg/ml) in a thick glass recipient. Evaporate under nitrogen and put on ice for 15 minutes. Reconstitute in 10 ml Tris/HCl (10 mM, pH 7.4) by sonication on ice. The sonification process consists of sonification cycles of 10 seconds in the sonification bath followed by 10 seconds cool down on ice and repeating this sonification cycle till a homogeneous solution is obtained (takes about 15 minutes). The thus obtained micelles are stored at −20° C. till later use and contain DAG at a final concentration of 1.61 mM.
• a) Assaybuffer • 50 mM Tris-HCl (pH 7.4), 150 mM MgCl2, 1 mM EDTA, 0.2% BSA. • b) N-ethylmaleimide, 5M • Dissolve 5 g into a final volume of 8 ml DMSO 100% and store at −20° C. in aliquots till later use. • c) Substrate mix (for 1 384 well plate=3840 μl) • 612 μl micelles stock (51 μM final) • 16.6 μl oleoylCoA 9.7 mM • 23 μl [^3H]-oleoylCoA (49 Ci/mmol, 500 μCi/ml) 3188.4 μl Tris pH 7.4, 10 mM • d) Enzyme mix (for 1 384 well plate=3520 μl) (5 μg/ml) • Add 11.73 μl of DGAT membrane stock (1500 μg/ml stock) to 3508 μl assay buffer. • e) Stop mix (for 1 384 well plate=7.68 ml) (250 mM) • Add 384 μl of N-ethylmaleimide (5M) to 3.456 ml DMSO 100%, and further dilute 3.84 ml of said solution with 3.84 ml DMSO 10%. Method
DGAT activity in membrane preparations was assayed in 50 mM Tris-HCl (pH 7.4), 150 mM MgCl2, 1 mM EDTA and 0.2% BSA, containing 50 μM DAG, […] PC/PS and 8.4 μM [^3H]-oleoylCoA (at a specific activity of 30 nCi/well) in a final volume of 50 μl in 384-well format using the red shifted Basic Image FlashPlate™ (Perkin Elmer Cat. No. SMP400).
In detail, 10 μl enzyme mix and 10 μl substrate mix were added to 30 μl of assay buffer, optionally in the presence of 1 μl DMSO (blank and controls) or 1 μl of the compound to be tested. This reaction mixture was incubated for 120 minutes at 37° C. and the enzymatic reaction stopped by adding 20 μl of the stop mix. The plates were sealed and the vesicles allowed to settle overnight at room temperature. Plates were centrifuged for 5 minutes at 1500 rpm and measured in Leadseeker. […]

Row | melting point [°C] | pIC50 (mean) (human DGAT1) | IC50 (human DGAT1) [nM] | SMILES
1 | 211.9 | 7.20 |  | COCCN1CCN(C(=O)c2cc(Cl)c(N/C(=N/C#N)N3CCN(c4ccc(NC(=O)CNc5ccccc5)cc4)CC3)c(Cl)c2)CC1 [Compound 15]
2 | 217.1 |  | 2.4 | Cc1ccccc1-c1cccc(C(=O)Nc2ccc(N3CCN(/C(=N\C#N)Nc4c(Cl)cc(CN5CCCC5)cc4Cl)CC3)cc2)c1 [Compound 6]
3 | 205.3 | 8.17 |  | COCCN1CCN(C(=O)c2cc(Cl)c(N/C(=N/C#N)N3CCN(c4ccc(NC(=O)Cc5ccc(OC)cc5)cc4)CC3)c(Cl)c2)CC1 [Compound 10]
4 | 285.1 | 6.64 |  | Cc1cccc(Cl)c1N/C(=N/C#N)N1CCN(c2ccc(NC(=O)c3ccc(N4CCN(C)CC4)cc3)cc2)CC1 [Compound 17]
5 | 220.3 |  | 6.31 | COC(=O)c1ccc(N/C(=N/C#N)N2CCN(c3ccc(NC(=O)c4cccc(N5CCCC5)c4)cc3)CC2)c(Cl)c1 [Compound 9]
6 |  |  | 5.25 | CN1CCN(C(=O)c2cc(Cl)c(N/C(=N/C#N)N3CCN(c4ccc(NC(=O)c5cccc(N6CCCC6)c5)cc4)CC3)c(Cl)c2)CC1 [Compound 7]
7 |  | 7.84 |  | Cc1cc(C)n(-c2cccc(C(=O)Nc3ccc(N4CCN(/C(=N\C#N)Nc5c(Cl)cc(CN6CCCC6)cc5Cl)CC4)cc3)c2)n1 [Compound 12]
8 | 222.4 | 8.16 |  | COc1ccc(CC(=O)Nc2ccc(N3CCN(/C(=N\C#N)Nc4c(Cl)cc(CN5CCCC5)cc4Cl)CC3)cc2)cc1 [Compound 11]
9 | 244.2 | 6.10 |  | CN1CCN(c2ccc(C(=O)Nc3ccc(N4CCN(/C(=N\C#N)Nc5ccccc5Cl)CC4)cc3)cc2)CC1 [Compound 18]
10 | 206.9 | 8.23 |  | COc1ccc(CC(=O)Nc2ccc(N3CCN(/C(=N\C#N)Nc4c(C)cccc4Cl)CC3)cc2)cc1 [Compound 8]
11 |  |  | 9.12 | N#C/N=C(/Nc1c(Cl)cccc1Cl)N1CCN(c2ccc(NC(=O)CCCc3ccccc3)cc2)CC1 [Compound 1]

Second part, the molecule before the results:

Row | SMILES | melting point [°C] | pIC50 (mean) (human DGAT1) | IC50 (human DGAT1) [nM]
12 | CCCCCCC(=O)Nc1ccc(N2CCN(/C(=N\C#N)Nc3ccc(C(=O)OC)cc3Cl)CC2)cc1 [Compound 14] | 191.8 | 7.24 | 
13 | N#C/N=C(/Nc1ccc(C(=O)O)cc1Cl)N1CCN(c2ccc(NC(=O)CCCc3ccccc3)cc2)CC1 [Compound 13] | 208.7 | 7.58 | 
14 | CC(=O)OCC(=O)Nc1ccc(N2CCN(/C(=N\C#N)Nc3c(F)cccc3Cl)CC2)cc1 [Compound 16] | 209 | 6.79 | 
15 | N#C/N=C(\Oc1ccccc1)N1CCN(c2ccc(NC(=O)CCCc3ccccc3)cc2)CC1 [Compound 2] |  |  | 1820
16 | Cc1ccccc1N/C(=N/C#N)N1CCN(c2ccc(NC(=O)CCCc3ccccc3)cc2)CC1 [Compound 4] |  |  | 36.3
17 | COCCN1CCN(C(=O)c2cc(Cl)c(N/C(=N/C#N)N3CCN(c4ccc(NC(=O)c5ccccc5N5CCN(C)CC5)cc4)CC3)c(Cl)c2)CC1 [Compound 19] | 254.2 | 5.54 | 
18 | N#C/N=C(/Nc1ccccc1Cl)N1CCN(c2ccc(NC(=O)CCCc3ccccc3)cc2)CC1 [Compound 3] |  |  | 33.9
19 | N#C/N=C(/Nc1ccccc1)N1CCN(c2ccc(NC(=O)CCCc3ccccc3)cc2)CC1 [Compound 5] |  |  | 1350
